Measurements published in the NIST ThermoML archive (doi:10.1016/j.tca.2007.03.018).

Assays:
[1] = Molar enthalpy of transition or fusion
[2] = molar heat capacity at constant pressure; details: 101.33 kPa
[3] = for molar entropy: 101.33 kPa; for vapor or sublimation pressure: Knudsen effusion

C1C2CC3CC1CC(C14CC5CC(CC(C5)C1)C4)(C2)C3 [1,1'-biadamantane]
Details	Molar enthalpy of transition or fusion, Crystal 1, DSC [kcal/mol]	Molar enthalpy of transition or fusion, Crystal 2, DSC [kcal/mol]	Molar enthalpy of transition or fusion, Crystal 3, Adiabatic calorimetry [kcal/mol]	Triple point temperature, Crystal 1, DTA [K]	Triple point temperature, Crystal 2, DTA [K]	Triple point temperature, Crystal 3 [K]
[1]	16.7	0.311	0.276	–	–	–
[3]	–	–	–	561	509.6	336.3

Details	molar entropy, [3] [J/K/mol]	molar heat capacity at constant pressure, [2] [J/K/mol]	vapor or sublimation pressure, [3] [kPa]
5 K, Crystal 3, Small (less than 1 g) adiabatic calorimetry	0.123	0.4412	–
10 K, Crystal 3, Small (less than 1 g) adiabatic calorimetry	1.008	3.035	–
20 K, Crystal 3, Small (less than 1 g) adiabatic calorimetry	6.713	16	–
30 K, Crystal 3, Small (less than 1 g) adiabatic calorimetry	16.03	30.58	–
40 K, Crystal 3, Small (less than 1 g) adiabatic calorimetry	26.5	42.31	–
50 K, Crystal 3, Small (less than 1 g) adiabatic calorimetry	37.01	52.05	–
60 K, Crystal 3, Small (less than 1 g) adiabatic calorimetry	47.28	60.95	–
70 K, Crystal 3, Small (less than 1 g) adiabatic calorimetry	57.32	69.55	–
80 K, Crystal 3, Small (less than 1 g) adiabatic calorimetry	67.2	78.54	–
90 K, Crystal 3, Small (less than 1 g) adiabatic calorimetry	76.98	87.69	–
100 K, Crystal 3, Small (less than 1 g) adiabatic calorimetry	86.7	97.04	–
110 K, Crystal 3, Small (less than 1 g) adiabatic calorimetry	96.4	106.6	–
120 K, Crystal 3, Small (less than 1 g) adiabatic calorimetry	106.1	116.4	–
130 K, Crystal 3, Small (less than 1 g) adiabatic calorimetry	115.8	126.3	–
140 K, Crystal 3, Small (less than 1 g) adiabatic calorimetry	125.5	136.4	–
150 K, Crystal 3, Small (less than 1 g) adiabatic calorimetry	135.2	146.7	–
160 K, Crystal 3, Small (less than 1 g) adiabatic calorimetry	145.1	157.3	–
170 K, Crystal 3, Small (less than 1 g) adiabatic calorimetry	155	168.2	–
180 K, Crystal 3, Small (less than 1 g) adiabatic calorimetry	164.9	179.3	–
190 K, Crystal 3, Small (less than 1 g) adiabatic calorimetry	174.9	190.7	–
200 K, Crystal 3, Small (less than 1 g) adiabatic calorimetry	184.9	202.7	–
210 K, Crystal 3, Small (less than 1 g) adiabatic calorimetry	195.1	214.7	–
220 K, Crystal 3, Small (less than 1 g) adiabatic calorimetry	205.4	227.1	–
230 K, Crystal 3, Small (less than 1 g) adiabatic calorimetry	215.8	240	–
240 K, Crystal 3, Small (less than 1 g) adiabatic calorimetry	226.3	253.4	–
250 K, Crystal 3, Small (less than 1 g) adiabatic calorimetry	237	267.7	–
260 K, Crystal 3, Small (less than 1 g) adiabatic calorimetry	247.6	281.1	–
270 K, Crystal 3, Small (less than 1 g) adiabatic calorimetry	258.5	295.3	–
273.15 K, Crystal 3, Small (less than 1 g) adiabatic calorimetry	262.1	299.8	–
280 K, Crystal 3, Small (less than 1 g) adiabatic calorimetry	269.5	309.6	–
290 K, Crystal 3, Small (less than 1 g) adiabatic calorimetry	280.6	324	–
298.15 K, Crystal 3, Small (less than 1 g) adiabatic calorimetry	289.9	335.3	–
300 K, Crystal 3, Small (less than 1 g) adiabatic calorimetry	291.9	338	–
310 K, Crystal 3, Small (less than 1 g) adiabatic calorimetry	303.2	352.8	–
320 K, Crystal 3, Small (less than 1 g) adiabatic calorimetry	314.6	366.5	–
330 K, Crystal 3, Small (less than 1 g) adiabatic calorimetry	326.1	378.2	–
336.3 K, Crystal 2, Small (less than 1 g) adiabatic calorimetry	336.8	385	–
336.3 K, Crystal 3, Small (less than 1 g) adiabatic calorimetry	333.4	385	–
340 K, Crystal 2, Small (less than 1 g) adiabatic calorimetry	340	389	–
350 K, Crystal 2, Small (less than 1 g) adiabatic calorimetry	352.4	400	–
360 K, Crystal 2, Small (less than 1 g) adiabatic calorimetry	362.8	412	–
370 K, Crystal 2, Small (less than 1 g) adiabatic calorimetry	374.3	424	–
380 K, Crystal 2, Large sample (1 g) DSC	385.8	437	–
390 K, Crystal 2, Large sample (1 g) DSC	397.3	450	–
392.77 K, Crystal 2	–	–	0.0005447
398 K, Crystal 2	–	–	0.0008576
400 K, Crystal 2, Large sample (1 g) DSC	408.8	463	–
402.91 K, Crystal 2	–	–	0.001308
407.9 K, Crystal 2	–	–	0.001881
410 K, Crystal 2, Large sample (1 g) DSC	420.4	477	–
412.88 K, Crystal 2	–	–	0.002772
417.8 K, Crystal 2, Large sample (1 g) DSC	429.5	487	–
420 K, Crystal 2, Large sample (1 g) DSC	432.1	491	–
422.86 K, Crystal 2	–	–	0.006026
427.75 K, Crystal 2	–	–	0.00828
430 K, Crystal 2, Large sample (1 g) DSC	444	505	–
432.81 K, Crystal 2	–	–	0.01195
437.82 K, Crystal 2	–	–	0.01674
440 K, Crystal 2, Large sample (1 g) DSC	456	520	–
442.66 K, Crystal 2	–	–	0.02466
450 K, Crystal 2, Large sample (1 g) DSC	467	535	–
460 K, Crystal 2, Large sample (1 g) DSC	479	551	–
470 K, Crystal 2, Large sample (1 g) DSC	491	567	–
480 K, Crystal 2, Large sample (1 g) DSC	503	582	–
490 K, Crystal 2, Large sample (1 g) DSC	516	598	–
500 K, Crystal 2, Large sample (1 g) DSC	528	614	–
509.6 K, Crystal 1, Large sample (1 g) DSC	542	629	–
509.6 K, Crystal 2, Large sample (1 g) DSC	540	629	–
510 K, Crystal 1, Large sample (1 g) DSC	543	630	–
520 K, Crystal 1, Large sample (1 g) DSC	555	646	–
530 K, Crystal 1, Large sample (1 g) DSC	568	662	–
535 K, Crystal 1, Large sample (1 g) DSC	574	669	–
540 K, Crystal 1, Large sample (1 g) DSC	580	677	–
545 K, Crystal 1, Large sample (1 g) DSC	586	685	–
550 K, Crystal 1, Large sample (1 g) DSC	593	693	–
555 K, Crystal 1, Large sample (1 g) DSC	599	701	–
560 K, Crystal 1, Large sample (1 g) DSC	605	709	–
